Data published in US11766443B2, “Cyclopentathiophene carboxamide derivatives as platelet activating factor receptor antagonists” (Boehringer Ingelheim International GmbH, priority 2021, dated 2023).
Converted amounts (≈) assume the structure as drawn.

Tests used:
[1] = aqueous solubility in buffer (from DMSO stock, 24 h shaking, LC-UV); settings: pH 2.2, aqueous buffer, kinetic from dmso stock
Description: The aqueous solubility of the test compound is determined by comparing the amount dissolved in buffer to the amount in an ACN/water (1/1) solution. Starting from a 10 mM DMSO stock solution aliquots are diluted with ACN/water (1/1) or buffer, respectively. After 24 h of shaking, the solutions are filtrated and analyzed by LC-UV. The amount dissolved in buffer is compared to the amount in the ACN solution.
Solubility will usually be measured from 0.001 to 0.125 mg/mL at a DMSO concentration of 2.5%. If more than 90% of the compound is dissolved in buffer, the value is marked with “>”.

[2] = target: T1, human PAFR (Homo sapiens, UniProt P25105); assay: cellular HTRF IP1 endpoint assay: inhibition of PAFR activation by PAF C-16 ligand; assay type: cell-based; settings: HEK293 cells overexpressing human PAFR; PAF ligand 11 nM
T1 construct: expressed in transfected cells; host or cells: HEK293
Description: The ability of compounds of formula (I.0) to inhibit the activation of the PAF receptor (PAFR) by the PAF C-16 ligand (PAF) is determined using the following cellular HTRF IP1 assay (IP1 Gq assay kit from Cisbio, Cat. no.: 62IP1APEJ) in assay buffer (1×HBSS, 20 mM Hepes, pH 7.4, 50 mM LiCl and containing 0.1% (w/v) BSA):
HEK293 cells overexpressing human PAFR (produced in-house) are seeded into a Poly-D-Lysine coated 384 well white cell culture microtiter assay plate with lid (15.000 cells per well). Subsequently, the plates are incubated over night at 37° C./5% CO2. On the next day, cells are being washed and subsequently, various concentrations of the test compounds (compounds in 100% DMSO; final concentration of DMSO in wells is 1%) are added to the assay plate via Echo 555 acoustic liquid handler. Plates are then incubated with lid for 90 minutes at 37° C./5% CO2. Thereafter, PAF ligand (Cayman Chemical Company, Item no.: 60900) is added at a final concentration of 11 nM. Plates are then incubated with lid for 60 minutes at 37° C./5% CO2. Then, 5 μl per well of Anti-IP1-Anti body-Cryptate solution and 5 μL per well of IP1-d2 solution are added to all wells of the plate and the plate is incubated for another 60 minutes light protected at room temperature. The emissions at 620 nm and 665 nm (Excitation wavelength: 320 nm) are measured using an Envision Reader (PerkinElmer).

T1 sequence (P25105 whole entry): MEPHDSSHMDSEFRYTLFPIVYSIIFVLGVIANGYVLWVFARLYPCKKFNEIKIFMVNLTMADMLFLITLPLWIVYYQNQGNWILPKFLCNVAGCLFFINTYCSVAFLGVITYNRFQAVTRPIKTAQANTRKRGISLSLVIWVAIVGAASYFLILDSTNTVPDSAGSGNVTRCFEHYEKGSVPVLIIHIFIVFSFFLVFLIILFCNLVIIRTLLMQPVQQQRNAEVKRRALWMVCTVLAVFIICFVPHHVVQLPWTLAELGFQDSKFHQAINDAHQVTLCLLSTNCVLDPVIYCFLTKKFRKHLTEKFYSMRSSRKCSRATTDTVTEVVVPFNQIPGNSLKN

Row | solubility at 24 h [1] [µg/mL] | IC50 [2] [nM] | Structure (SMILES)
1 | 116 (≈ 250 µM) | 297 | CCc1ccccc1C1NCc2nnc(C)n2-c2sc3c(c21)CC(C(=O)N1CCOCC1)C3 (racemic) [Example 53, 9-(2-Ethylphenyl)-3-methyl-13-(morpholine-4-carbonyl)-16-thia-2,4,5,8-tetraazatetracyclo[8.6.0.0^2,6.0^11,15]hexadeca-1(10),3,5,11(15)-tetraene]
2 | > 112 | 240 | Cc1nnc2n1-c1sc3c(c1C(c1ccccc1F)NC2)CC(C(=O)N1CCOCC1)C3 (racemic) [Example 55, 9-(2-Fluorophenyl)-3-methyl-13-(morpholine-4-carbonyl)-16-thia-2,4,5,8-tetraazatetracyclo[8.6.0.0^2,6.0^11,15]hexadeca-1(10),3,5,11(15)-tetraene]
3 | > 128 | 161 | Cc1nnc2n1-c1sc3c(c1C(c1ccccc1Br)NC2)CC(C(=O)N1CCOCC1)C3 (racemic) [Example 57, 9-(2-Bromophenyl)-3-methyl-13-(morpholine-4-carbonyl)-16-thia-2,4,5,8-tetraazatetracyclo[8.6.0.0^2,6.0^11,15]hexadeca-1(10),3,5,11(15)-tetraene]
4 | > 119 | > 322 | Cc1nnc2n1-c1sc3c(c1C(c1ccccc1C1CC1)NC2)CC(C(=O)N1CCOCC1)C3 (racemic) [Example 59, 9-(2-Cyclopropylphenyl)-3-methyl-13-(morpholine-4-carbonyl)-16-thia-2,4,5,8-tetraazatetracyclo[8.6.0.0^2,6.0^11,15]-hexadeca-1(10),3,5,11(15)-tetraene]
5 |  | > 322 | Cc1nnc2n1-c1sc3c(c1C(c1ccccc1CO)NC2)CC(C(=O)N1CCOCC1)C3 (racemic) [Example 60, {2-[3-Methyl-13-(morpholine-4-carbonyl)-16-thia-2,4,5,8-tetraazatetracyclo[8.6.0.0^2,6.0^11,15]hexadeca-1(10),3,5,11(15)-tetraen-9-yl]phenyl}methanol]
6 | > 113 | > 322 | Cc1nnc2n1-c1sc3c(c1C(c1ccccc1O)NC2)CC(C(=O)N1CCOCC1)C3 (racemic) [Example 61, 2-[3-Methyl-13-(morpholine-4-carbonyl)-16-thia-2,4,5,8-tetraazatetracyclo[8.6.0.0^2,6.0^11,15]hexadeca-1(10),3,5,11(15)-tetraen-9-yl]phenol]
7 | > 119 | 235 | CSc1ccccc1C1NCc2nnc(C)n2-c2sc3c(c21)C[C@H](C(=O)N1CCOCC1)C3 (mixture of isomers) [Example 79, 3-Methyl-9-[2-(methylsulfanyl)phenyl]-13-(morpholine-4-carbonyl)-16-thia-2,4,5,8-tetraazatetracyclo[8.6.0.0^2,6.0^11,15]hexadeca-1(10),3,5,11(15)-tetraene]
8 | > 104 | 110 | CCCc1nnc2n1-c1sc3c(c1[C@@H](c1ccccc1Cl)NC2)CC(C(=O)N1CCOCC1)C3 (stereo in doubt) [Example 80, 9-(2-Chlorophenyl)-13-(morpholine-4-carbonyl)-3-propyl-16-thia-2,4,5,8-tetraazatetracyclo[8.6.0.0^2,6.0^11,15]hexadeca-1(10),3,5,11(15)-tetraene]
9 |  | 283 | Cc1nnc2n1-c1sc3c(c1C(c1ccc(Cl)cc1)NC2)CC(C(=O)N1CCOCC1)C3 (stereo not drawn) [Example 52, 9-(4-Chlorophenyl)-3-methyl-13-(morpholine-4-carbonyl)-16-thia-2,4,5,8-tetraazatetracyclo[8.6.0.0^2,6.0^11,15]hexadeca-1(10),3,5,11(15)-tetraene]
10 | 49 (≈ 105 µM) |  | COc1ccccc1C1NCc2nnc(C)n2-c2sc3c(c21)CC(C(=O)N1CCOCC1)C3 (stereo not drawn) [Example 54, 9-(2-Methoxyphenyl)-3-methyl-13-(morpholine-4-carbonyl)-16-thia-2,4,5,8-tetraazatetracyclo[8.6.0.0^2,6.0^11,15]-hexadeca-1(10),3,5,11(15)-tetraene]
11 | > 126 |  | Cc1nnc2n1-c1sc3c(c1C(c1ccccc1C(F)(F)F)NC2)CC(C(=O)N1CCOCC1)C3 (stereo not drawn) [Example 56, 3-Methyl-13-(morpholine-4-carbonyl)-9-[2-(trifluoromethyl)phenyl]-16-thia-2,4,5,8-tetraazatetracyclo[8.6.0.0^2,6.0^11,15]-hexadeca-1(10),3,5,11(15)-tetraene]
12 | > 118 |  | Cc1nnc2n1-c1sc3c(c1C(c1cc(F)cc(F)c1)NC2)CC(C(=O)N1CCOCC1)C3 (stereo not drawn) [Example 58, 9-(3,5-Difluorophenyl)-3-methyl-13-(morpholine-4-carbonyl)-16-thia-2,4,5,8-tetraazatetracyclo[8.6.0.0^2,6.0^11,15]-hexadeca-1(10),3,5,11(15)-tetraene]
13 | > 110 |  | Cc1ccccc1[C@H]1NCc2nnc(C)n2-c2sc3c(c21)C[C@H](C(=O)N1CCOCC1)C3 [Example 63, (9R,13S)-3-Methyl-9-(2-methylphenyl)-13-(morpholine-4-carbonyl)-16-thia-2,4,5,8-tetraazatetracyclo[8.6.0.0^2,6.0^11,15]-hexadeca-1(10),3,5,11(15)-tetraene]
14 |  | > 1000 | CCc1nnc2n1-c1sc3c(c1[C@H](c1ccccc1Cl)NC2)C[C@@H](C(=O)N1CCOCC1)C3 [Example 70]
15 |  | > 999 | CCc1nnc2n1-c1sc3c(c1[C@@H](c1ccccc1Cl)NC2)C[C@@H](C(=O)N1CCOCC1)C3 [Example 71]

Row | Structure (SMILES) | solubility at 24 h [1] [µg/mL] | IC50 [2] [nM]
16 | Cc1nnc2n1-c1sc3c(c1C(c1ccccc1Cl)NC2)CC(C(=O)N1CCOCC1)C3 (racemic) [Example 1, 9-(2-Chlorophenyl)-3-methyl-13-(morpholine-4-carbonyl)-16-thia-2,4,5,8-tetraazatetracyclo[8.6.0.0^2,6.0^11,15]-hexadeca-1(10),3,5,11(15)-tetraene] | > 115 | 102
17 | Cc1nnc2n1-c1sc3c(c1[C@@H](c1ccccc1Cl)NC2)C[C@H](C(=O)N1CCOCC1)C3 [Example 3, (9S,13S)-9-(2-chlorophenyl)-3-methyl-13-(morpholine-4-carbonyl)-16-thia-2,4,5,8-tetraazatetracyclo[8.6.0.0^2,6.0^11,15]-hexadeca-1(10),3,5,11(15)-tetraene] | > 118 | 423
18 | Cc1nnc2n1-c1sc3c(c1[C@H](c1ccccc1Cl)NC2)C[C@H](C(=O)N1CCO[C@@H](C)C1)C3 [Example 4, (9R,13S)-9-(2-Chlorophenyl)-3-methyl-13-[(2S)-2-methylmorpholine-4-carbonyl]-16-thia-2,4,5,8-tetraazatetracyclo-[8.6.0.0^2,6.0^11,15]hexadeca-1(10)3,5,11(15)-tetraene] | > 113 | 6.8
19 | Cc1nnc2n1-c1sc3c(c1[C@H](c1ccccc1Cl)NC2)C[C@H](C(=O)N1C[C@@H](C)O[C@H](C)C1)C3 [Example 5] | 95 (≈ 191 µM) | 8.2
20 | Cc1nnc2n1-c1sc3c(c1[C@H](c1ccccc1Cl)NC2)C[C@H](C(=O)N1C[C@H](C)O[C@@H](C)C1)C3 [Example 6] | > 112 | 11
21 | Cc1nnc2n1-c1sc3c(c1[C@@H](c1ccccc1)NC2)C[C@@H](C(=O)N1CCOCC1)C3 [Example 75] |  | > 568
22 | Cc1nnc2n1-c1sc3c(c1[C@H](c1ccccc1)NC2)C[C@H](C(=O)N1CCOCC1)C3 [Example 76] |  | 140
23 | Cc1nnc2n1-c1sc3c(c1[C@H](c1ccccc1)NC2)C[C@@H](C(=O)N1CCOCC1)C3 [Example 77] |  | > 1000
24 | Cc1nnc2n1-c1sc3c(c1[C@@H](c1ccccc1)NC2)C[C@H](C(=O)N1CCOCC1)C3 [Example 78] |  | > 1000
